Results on 63 molecules are retold here after the Bradley open melting point set (2014).

Molecules are shown by their SMILES. “And” between values parts separate entries of the source, which are not always exact repeats. Equal values may be shown once.

What is called melting point is the temperature, or range, at which the solid turns liquid. Consider `N#Cc1ccc(O)cc1` [4-hydroxybenzonitrile], for which the melting point worked out at 112 °C. `CC(N)=O` [Acetamide] registered a melting point of 81 °C.

As for `COc1ccc(C=C[N+](=O)[O-])cc1OCc1ccccc1` [2-(benzyloxy)-1-methoxy-4-(2-nitrovinyl)benzene], the melting point is 120 °C.

Take `CC(C)(C)C1=CC(=O)C(=O)C(C(C)(C)C)=C1` [3,5-Di-tert-butyl-1,2-benzoquinone]: the melting point amounted to 114 °C. In turn, `CC(=O)S[C@@H]1CC2=CC(=O)CC[C@]2(C)[C@H]2CC[C@@]3(C)[C@@H](CC[C@@]34CCC(=O)O4)[C@H]12` [spironolactone] yielded a melting point of 134 °C. In the case of `Cc1cccc(Cl)c1` [3-chlorotoluene], the melting point is -48 °C.

Molecule `O=C(O)Cc1ccc(Cl)cc1` [4-chlorophenylacetic acid] had a melting point of 106 °C. Consider `CCCOC1CCC2C3CCC4=CC(=O)CCC4(C)C3CCC12C` (stereo not drawn) [17-propoxyandrost-4-en-3-one], for which the melting point turned out to be 118 °C. Molecule `CO[C@@H]1[C@@H](O[C@@H]2O[C@H](C)[C@@H](O[C@H]3C[C@@](C)(O)[C@@H](OC(=O)CC(C)C)[C@H](C)O3)[C@H](N(C)C)[C@H]2O)[C@@H](CC=O)C[C@@H](C)[C@@H](O)C=CC=CC[C@@H](C)OC(=O)C[C@H]1OC(C)=O` [Josamycin] showed a melting point of 132 °C. The result for `O=C1NC(=O)c2cc([N+](=O)[O-])ccc21` [4-nitrophthalimide] reads 202 °C; that for `CC(C)c1ccc(O)cc1` [4-isopropylphenol], 60 °C and 61 °C; that for `O=C(O)c1cccc(CO)c1` [m-hydroxymethyl_benzoic_acid], 115 °C.

Consider `COc1ccc(CC(=O)O)cc1OC` [(3,4-Dimethoxyphenyl)acetic acid], for which the melting point came out at 98 °C. As for `Nc1ccccc1N1CCOCC1` [2-(4-morpholinyl)aniline], the melting point turned out to be 97 °C. In the case of `Cl/C=C\Cl` [(Z)-1,2-Dichloroethene], the melting point was -80 °C. Take `Cc1cc(C)cc(C)c1` [mesitylene]: the melting point is -45 °C. For the molecule `O=C(O)CCCCCCC(=O)O` [suberic acid], the melting point was found to be 143 °C.

Turning to `CNc1ccccc1` [N-methylaniline], the melting point is -57 °C. The value for `CCCCCC(C)(C)O` [2-methyl-2-heptanol] was -50 °C. With `CC(=O)CC(=O)c1ccccc1` [benzoylacetone], the melting point is 59 °C. Take `C[Si](C)(C)N[Si](C)(C)C` [hexamethyldisilazane]: the melting point is -78 °C. The molecule `COC(=O)c1ccc(CO)cc1` [methyl_4-hydroxymethylbenzoate] registered a melting point of 51 °C.

The molecule `Cc1ccc(I)cc1` [p-iodotoluene] showed a melting point of 43 °C. The molecule `NC(=O)C(Cl)(Cl)Cl` [2,2,2-Trichloroacetamide] registered a melting point of 142 °C. In turn, `CCOC(=O)[C@@H]1CC[C@H](C(C)=O)[C@@H]1NC(=O)OC(C)(C)C` showed a melting point of 110 °C. In turn, `O=C1NN(c2ccccc2)C(=O)C1c1ccccc1` (stereo not drawn) [phenopyrazone] displayed a melting point of 233 °C. Turning to `Nc1c([N+](=O)[O-])cccc1[N+](=O)[O-]` [2,6-dinitroaniline], the melting point came out at 133 °C. As for `Cc1cc(=O)n(-c2ccccc2)n1C` [Antipyrine], the melting point turned out to be 112 °C. For the molecule `S=C=Nc1ccc(I)cc1` [4-iodophenyl isothiocyanate], the melting point was determined as 76 °C. `N#C/C(=N/Nc1cc(Cl)ccc1Cl)c1nc(-c2ccccc2)cs1` gave a melting point of 134 °C. The value for `COc1ccccc1O` [2-Methoxyphenol] was 28 °C.

On to `NC(=S)c1ccccc1` [thiobenzamide], for which the melting point came out at 116 °C. `OCc1ccccc1O[C@@H]1O[C@H](CO)[C@@H](O)[C@H](O)[C@H]1O` [2-(Hydroxymethyl)phenyl beta-D-glucopyranoside] had a melting point of 199 °C.

Molecule `Oc1ccc(/C=C/c2cc(O)cc(O)c2)cc1` [resveratrol] had a melting point of 254 °C. Consider `CCCCCOCCCCC` [1-(Pentyloxy)pentane], for which the melting point is -69 °C. The result for `CC1=CC(=O)CC(C)(C)C1` [isophorone] reads -8 °C; that for `CC1=CC(=O)c2ccccc2C1=O` [2-methyl-1,4-naphthoquinone], 106 °C. With `C=C1CC2C3C=C(C)C4=CC(=O)CCC4(C)C3CCC2(C)C1(OC(C)=O)C(C)=O` (stereo not drawn) [melengestrolacetate], the melting point came out at 224 °C. The molecule `OCc1ccccc1Cl` [2-chlorobenzyl alcohol] had a melting point of 70 °C. Consider `CCCC(=O)OC(=O)CCC` [butyric anhydride], for which the melting point is -75 °C. For `CC1=NS(=O)(=O)c2cc(Cl)ccc2N1` [Diazoxide], the melting point came to 330 °C. Consider `O=C1C=C(NCCc2ccccn2)C(=O)c2ccccc21` [2-[(2-pyridin-2-ylethyl)amino]naphthalene-1,4-dione], for which the melting point came to 129 °C. The result for `CCCOC(=O)c1ccc(O)cc1` [propylparaben] reads 97 °C. `CO[Si](OC)(OC)OC` [tetramethoxysilane]: the melting point turned out to be 5 °C.

For the molecule `CCCCCC(=O)O` [Hexanoic acid], the melting point is -3 °C. Regarding `CCCCCCCCC` [Nonane], the melting point was -53 °C. The result for `Oc1ccc(F)cc1Cl` [2-chloro-4-fluorophenol] reads 22 °C. The molecule `CC(=O)Oc1ccc(-c2ccc(OC(C)=O)cc2)cc1` [4,4'-diacetoxybiphenyl] returned a melting point of 164 °C. The value for `O=C(O)CCI` [3-iodopropionic acid] was 82 °C; that for `NC(=O)c1ccc(O)cc1` [4-hydroxybenzamide] was 161 °C. For the molecule `O=C(O)CCl` [Chloroacetic acid], the melting point came out at 63 °C.

The molecule `C[C@H]1O[C@@H](O[C@H]2[C@@H](O)C[C@H](O[C@H]3[C@@H](O)C[C@H](O[C@H]4CC[C@@]5(C)[C@H](CC[C@@H]6[C@@H]5CC[C@]5(C)[C@@H](C7=CC(=O)OC7)CC[C@]65O)C4)O[C@@H]3C)O[C@@H]2C)C[C@H](O)[C@@H]1O` [Digitoxin] displayed a melting point of 256 °C. Turning to `NC(=O)/C(=N\Nc1ccc(O)cc1)c1nc2ccccc2s1`, the melting point came to 161 °C.

On to `ClC1C(Cl)C(Cl)C(Cl)C(Cl)C1Cl` (stereo not drawn) [1,2,3,4,5,6-Hexachlorocyclohexane], for which the melting point was 113 °C. The result for `Cc1c(C)c(C)c(Br)c(C)c1C` [1-bromo-2,3,4,5,6-pentamethylbenzene] reads 165 °C; that for `NC(=O)c1ccc(Cl)cc1` [4-chlorobenzamide], 178 °C; that for `OCCCO` [1,3-propanediol], -26 °C. `O=[N+]([O-])c1cccc(O)c1` [3-nitrophenol]: the melting point is 96 °C. On to `O=C(/C=C/c1ccc2ccccc2c1)/C=C/c1ccc2ccccc2c1` [(1E,4E)-1,5-Di(2-naphthyl)-1,4-pentadien-3-one], for which the melting point was 244 °C and 245 °C.

Consider `COC(=O)CCC(=O)OC` [Dimethyl succinate], for which the melting point was determined as 19.5 °C.

Consider `CN(C)C=O` [N,N-dimethylformamide], for which the melting point was -61 °C. Turning to `Fc1ccccc1F` [1,2-difluorobenzene], the melting point is -34 °C.

`c1ccc2ccccc2c1` [naphthalene]: the melting point was 80 °C and 82 °C and 81 °C.
